pKi: −log10 of the molar value. Where two headings read alike, the source gives them in different places.
Assays:
delta opioid receptor = delta opioid receptor (Rattus norvegicus, UniProt P33533); assay: Rat brain delta opioid receptor binding assay ([3H]DPDPE); details: Rat delta opioid receptor binding constant, rat forebrain membranes, ~4 nM [3H]DPDPE
Description: Rat Brain Delta Opioid Receptor Binding Assay
Procedure: Male, Sprague Dawley rats (150-250 g, VAF, Charles River, Kingston, N.Y.) were killed by CO2, and their brains removed and placed immediately in ice cold Tris HCl buffer (50 mM, pH 7.4). The forebrains were separated from the remainder of the brain by a coronal transection, beginning dorsally at the colliculi and passing ventrally through the midbrain-pontine junction. After dissection, the forebrains were homogenized in Tris buffer in a Teflon®-glass homogenizer. The homogenate was diluted to a concentration of 1 g of forebrain tissue per 80 mL Tris and centrifuged at 39,000×g for 10 min. The pellet was resuspended in the same volume of Tris buffer containing 5 mM MgCl2 with several brief pulses from a Polytron homogenizer. This particulate preparation was used for the delta opioid binding assays. Following incubation with the delta selective peptide ligand ˜4 nM [^3H]DPDPE at 25° C. for 2.5 h in a 96-well plate with total volume of 1 mL, the plate contents were filtered through Wallac filtermat B sheets on a Tomtec 96-well harvester. The filters were rinsed three times with 2 mL of 10 mM HEPES (pH 7.4), and dried in a 650 W microwave oven for 1.75 min twice. To each sample area 2×50 μL of Betaplate Scint scintillation fluid (LKB) was added and the radioactivity quantified on a LKB (Wallac) 1205 BetaPlate liquid scintillation counter.
(§1) Analysis: The data from the scintillation counter were used to calculate either the % inhibition compared to control binding (when only a single concentration of test compound was evaluated) or a Ki value (when a range of concentrations was tested). Percent inhibition was calculated as: [(total dpm-test compound dpm)/(total dpm-nonspecific dpm)]*100. Kd and Ki values were calculated using GraphPad PRISM data analysis program.

mu opioid receptor = mu opioid receptor (Rattus norvegicus, UniProt P33535); assay: Rat brain mu opioid receptor binding assay ([3H]DAMGO); details: Rat mu opioid receptor binding constant, rat forebrain membranes, ~0.8 nM [3H]DAMGO
Sequence of mu opioid receptor (P33535 whole entry): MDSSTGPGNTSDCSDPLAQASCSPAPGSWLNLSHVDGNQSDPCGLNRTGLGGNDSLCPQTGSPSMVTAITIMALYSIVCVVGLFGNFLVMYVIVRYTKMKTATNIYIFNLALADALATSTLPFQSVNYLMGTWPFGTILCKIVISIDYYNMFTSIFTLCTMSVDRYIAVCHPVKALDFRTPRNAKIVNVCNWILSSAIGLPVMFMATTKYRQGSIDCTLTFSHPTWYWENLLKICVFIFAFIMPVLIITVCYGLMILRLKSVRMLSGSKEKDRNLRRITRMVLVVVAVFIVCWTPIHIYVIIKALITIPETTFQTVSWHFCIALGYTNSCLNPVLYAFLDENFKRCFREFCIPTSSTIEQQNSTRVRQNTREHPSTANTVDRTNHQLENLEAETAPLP
Description: Rat Brain Mu Opioid Receptor Binding Assay
Procedure: Male, Sprague Dawley rats (150-250 g, VAF, Charles River, Kingston, N.Y.) were killed by CO2, and their brains removed and placed immediately in ice cold Tris HCl buffer (50 mM, pH 7.4). The forebrains were separated from the remainder of the brain by a coronal transection, beginning dorsally at the colliculi and passing ventrally through the midbrain-pontine junction. After dissection, the forebrains were homogenized in Tris buffer in a Teflon®-glass homogenizer. The homogenate was diluted to a concentration of 1 g of forebrain tissue per 80 mL Tris and centrifuged at 39,000×g for 10 min. The pellet was resuspended in the same volume of Tris buffer containing 5 mM MgCl2 with several brief pulses from a Polytron homogenizer. This particulate preparation was used for the delta opioid binding assays.
as §1, with “concentrations” for “concentrations was”

Sequence of delta opioid receptor (P33533 whole entry): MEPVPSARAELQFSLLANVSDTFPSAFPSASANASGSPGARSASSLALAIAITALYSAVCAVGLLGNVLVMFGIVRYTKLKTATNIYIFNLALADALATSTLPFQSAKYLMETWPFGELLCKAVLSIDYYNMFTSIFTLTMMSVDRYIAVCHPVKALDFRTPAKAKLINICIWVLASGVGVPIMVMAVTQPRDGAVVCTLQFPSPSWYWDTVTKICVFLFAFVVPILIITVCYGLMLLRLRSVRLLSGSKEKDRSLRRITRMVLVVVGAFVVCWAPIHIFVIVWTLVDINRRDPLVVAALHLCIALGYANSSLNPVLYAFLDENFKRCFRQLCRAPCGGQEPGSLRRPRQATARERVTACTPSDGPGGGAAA

| Structure (SMILES) | pKi (delta opioid receptor; DOR Ki) | pKi (mu opioid receptor; MOR Ki) | pKi (delta opioid receptor; read-out: DOR Ki) | pKi (mu opioid receptor; read-out: MOR Ki) |
| --- | --- | --- | --- | --- |
| NC(=O)c1ccccc1-c1ccc2c(c1)Oc1ccccc1C2=C1CC2CCC(C1)N2 [Cpd 18] | 7.42 | 5.81 | – | – |
| O=C(c1ccc2c(c1)Oc1ccccc1C2=C1CC2CCC(C1)N2)N1CCC(O)C1 (single isomer, unassigned) [Cpd 70] | 7.20 | 5.78 | – | – |
| COC[C@H](Cc1ccccc1)NC(=O)c1ccc2c(c1)Oc1ccccc1C2=C1CC2CCC(C1)N2 [Cpd 31] | – | – | 6.85 | 6.18 |
| c1ccc2c(c1)Oc1cc(-c3ccncc3)ccc1C2=C1CC2CCC(C1)N2 [Cpd 29] | 6.88 | 5.74 | – | – |
| CS(=O)(=O)c1ccc(-c2ccc3c(c2)Oc2ccccc2C3=C2CC3CCC(C2)N3)cc1 [Cpd 53] | 5.50 | 5.48 | – | – |
| Fc1cccc(-c2ccc3c(c2)Oc2ccccc2C3=C2CC3CCC(C2)N3)c1 [Cpd 51] | 5.61 | 4.78 | – | – |
| c1ccc2c(c1)Oc1cc(C3=NCCN3)ccc1C2=C1CC2CCC(C1)N2 [Cpd 33] | 6.65 | 6.50 | – | – |
| NC(=NO)c1ccc2c(c1)Oc1ccccc1C2=C1CC2CCC(C1)N2 [Cpd 24] | 7.11 | 6.21 | – | – |
| CC(=O)Nc1ccccc1-c1ccc2c(c1)Sc1ccccc1C2=C1CC2CCC(C1)N2Cc1ncc[nH]1 [Cpd 119] | – | – | 6.85 | 6.46 |
| COc1cccc2c1Oc1cc(-c3ccoc3)ccc1C2=C1CC2CCC(C1)N2 [Cpd 105] | – | – | 7.06 | 6.30 |
| O=C(NC(CO)Cc1ccccc1)c1ccc2c(c1)Oc1ccccc1C2=C1CC2CCC(C1)N2 (single isomer, unassigned) [Cpd 27] | 7.00 | 7.00 | – | – |
| Cc1nnc(-c2ccc3c(c2)Oc2ccccc2C3=C2CC3CCC(C2)N3)[nH]1 [Cpd 35, 3-[3-(5-Methyl-4H-[1,2,4]triazol-3-yl)-xanthen-9-ylidene]-8-aza-bicyclo[3.2.1]octane] | 6.58 | 6.17 | – | – |
| CN(C(=O)c1ccc2c(c1)Oc1ccccc1C2=C1CC2CCC(C1)N2)c1ccccc1 [Cpd 14] | 7.57 | 5.94 | – | – |
| O=C(c1ccc2c(c1)Oc1ccccc1C2=C1CC2CCC(C1)N2)N1CCC(O)C1 (single isomer, unassigned) [Cpd 69] | 6.98 | 5.69 | – | – |
| O=C(NCc1ccccc1)c1ccc2c(c1)Oc1ccccc1C2=C1CC2CCC(C1)N2 [Cpd 40] | – | – | 6.34 | 5.51 |
| COc1cccc2c1Oc1cc(-c3ccncc3)ccc1C2=C1CC2CCC(C1)N2 [Cpd 107] | – | – | 6.97 | 6.22 |
| COc1cccc2c1Oc1cc(-c3cnc4ccccc4c3)ccc1C2=C1CC2CCC(C1)N2 [Cpd 104] | – | – | 6.61 | 5.77 |
| COc1cccc(C2CCCN(C(=O)c3ccc4c(c3)Oc3ccccc3C4=C3CC4CCC(C3)N4)C2)c1 (centres unmarked) [Cpd 65] | 7.06 | 6.50 | – | – |
| c1ccc2c(c1)Oc1cc(-c3nnn[nH]3)ccc1C2=C1CC2CCC(C1)N2 [Cpd 81] | – | – | 9.30 | 6.58 |
| O=C(NC1CCC(c2ccccc2)CC1)c1ccc2c(c1)Oc1ccccc1C2=C1CC2CCC(C1)N2 (centres unmarked) [Cpd 34] | – | – | 6.61 | 5.21 |
| CC(=O)Nc1ccccc1-c1ccc2c(c1)Oc1ccccc1C2=C1CC2CCC(C1)N2C(=O)C(F)(F)F [Cpd 131] | – | – | < 5.00 | < 5.00 |
| CC(C)C[C@H](CO)NC(=O)c1ccc2c(c1)Oc1ccccc1C2=C1CC2CCC(C1)N2 [Cpd 67] | 6.44 | 5.80 | – | – |
| CN(C(=O)c1ccc2c(c1)Oc1ccccc1C2=C1CC2CCC(C1)N2)c1ccc(F)cc1 [Cpd 66] | 7.03 | 6.03 | – | – |
| c1cncc(-c2ccc3c(c2)Sc2ccccc2C3=C2CC3CCC(C2)N3Cc2ncc[nH]2)c1 [Cpd 115] | 7.04 | 7.22 | – | – |
| CC(C)CN(CC(C)C)C(=N)c1ccc2c(c1)Oc1ccccc1C2=C1CC2CCC(C1)N2 [Cpd 28] | 6.97 | 5.51 | – | – |

| Structure (SMILES) | pKi (delta opioid receptor; DOR Ki) | pKi (mu opioid receptor; MOR Ki) | pKi (delta opioid receptor; read-out: DOR Ki) | pKi (mu opioid receptor; read-out: MOR Ki) |
| --- | --- | --- | --- | --- |
| CC(C)CNC(=N)c1ccc2c(c1)Oc1ccccc1C2=C1CC2CCC(C1)N2 [Cpd 49] | 5.88 | 5.40 | – | – |
| CC(=O)Nc1ccccc1-c1ccc2c(c1)Sc1ccccc1C2=C1CC2CCC(C1)N2 [Cpd 113] | 7.05 | 5.82 | – | – |
| c1cncc(-c2ccc3c(c2)Sc2ccccc2C3=C2CC3CCC(C2)N3Cc2ccoc2)c1 [Cpd 116, 8-Furan-3-ylmethyl-3-(3-pyridin-3-yl-thioxanthen-9-ylidene)-8-aza-bicyclo[3.2.1]octane] | 7.03 | – | – | 6.95 |
| CN(C)C(=O)CN(C)C(=O)c1ccc2c(c1)Oc1ccccc1C2=C1CC2CCC(C1)N2 [Cpd 68] | – | – | 8.07 | 5.62 |
| CC(=O)Nc1cccc(-c2ccc3c(c2)Oc2ccccc2C3=C2CC3CCC(C2)N3)c1 [Cpd 20] | 7.33 | 5.55 | – | – |
| Cn1nnnc1-c1ccc2c(c1)Oc1ccccc1C2=C1CC2CCC(C1)N2 [Cpd 21, 3-[3-(1-Methyl-1 H-tetrazol-5-yl)-xanthen-9-ylidene]-8-aza-bicyclo[3.2.1]octane] | 7.27 | 5.76 | – | – |
| CC(=O)Nc1ccc(-c2ccc3c(c2)Oc2ccccc2C3=C2CC3CCC(C2)N3)cc1 [Cpd 30] | 6.86 | 5.56 | – | – |
| O=C(Nc1ccccc1)c1ccc2c(c1)Oc1ccccc1C2=C1CC2CCC(C1)N2 [Cpd 47] | 6.09 | 5.92 | – | – |
| CN(C)CCN(C)C(=O)c1ccc2c(c1)Oc1ccccc1C2=C1CC2CCC(C1)N2 [Cpd 56] | 5.31 | 4.55 | – | – |
| O=C(N1C2CCC1CC(=C1c3ccccc3Oc3cc(-c4cccnc4)ccc31)C2)C(F)(F)F [Cpd 129] | – | – | < 5.00 | < 5.00 |
| COc1ccc(-c2ccc3c(c2)Oc2ccccc2C3=C2CC3CCC(C2)N3)cn1 [Cpd 32] | 6.80 | – | – | – |
| O=C(NC1CCCC1)c1ccc2c(c1)Oc1ccccc1C2=C1CC2CCC(C1)N2 [Cpd 45] | 6.17 | 5.51 | – | – |
| CC(=O)Nc1ccccc1-c1ccc2c(c1)Sc1ccccc1C2=C1CC2CCC(C1)N2Cc1ccccn1 [Cpd 121] | 8.43 | – | – | 6.86 |
| COC(=O)c1ccc2c(c1)Sc1ccccc1C2=C1CC2CCC(C1)N2 [Cpd 76] | – | – | 6.43 | 5.32 |
| Fc1ccc(-c2ccc3c(c2)Oc2ccccc2C3=C2CC3CCC(C2)N3)cc1 [Cpd 54] | 5.35 | – | – | – |
| O=C(N1C2CCC1CC(=C1c3ccccc3Oc3cc(-c4cccnc4)ccc31)C2)C(F)(F)F [Cpd 128] | – | – | < 5.00 | < 5.00 |
| N#Cc1ccc2c(c1)Oc1ccccc1C2=C1CC2CCC(C1)N2 [Cpd 77] | – | – | 5.57 | 5.61 |
| O=C(NCC(F)(F)F)c1ccc2c(c1)Oc1ccccc1C2=C1CC2CCC(C1)N2 [Cpd 64] | 7.28 | 6.39 | – | – |
| CC(C)(C)OC(=O)N1C2CCC1CC(=C1c3ccccc3Oc3cc(C(=O)NCCO)ccc31)C2 [Cpd 122] | – | – | < 5.00 | < 5.00 |
| Brc1ccc2c(c1)Sc1ccccc1C2=C1CC2CCC(C1)N2 [Cpd 84, 3-(3-Bromo-thioxanthen-9-ylidene)-8-aza-bicyclo[3.2.1]octane] | 5.54 | < 5.00 | – | – |
| c1ccc2c(c1)Sc1cc(-c3nnn[nH]3)ccc1C2=C1C[C@H]2CC[C@@H](C1)N2 (single isomer, unassigned) [Cpd 102, (1RS,5SR)-3-[3-(1H-Tetrazol-5-yl)-thioxanthen-9-ylidene]-8-aza-bicyclo[3.2.1]octane] | 7.27 | 5.56 | – | – |
| O=C(c1ccc2c(c1)Oc1ccccc1C2=C1CC2CCC(C1)N2)N(CC(F)(F)F)CC(F)(F)F [Cpd 48] | – | – | 6.03 | 5.69 |
| CN(CCO)C(=O)c1ccc2c(c1)Oc1ccccc1C2=C1CC2CCC(C1)N2 [Cpd 61, 9-(8-Aza-bicyclo[3.2.1]oct-3-ylidene)-9H-xanthene-3-carboxylic acid (2-hydroxy-ethyl)-methyl-amide] | 8.20 | 6.06 | – | – |
| Cc1cccc(-c2ccc3c(c2)Oc2ccccc2C3=C2CC3CCC(C2)N3)c1 [Cpd 46] | 6.14 | – | – | – |
